# Source: US20250332180A1, “CANNABINOIDS AND IL-15 ACTIVATE NK CELLS” (The Regents of the University of California, priority 2022, published 2025)
# Legend:
# IFN-γ secretion = IFN-γ secretion of immune cells in humanized BLT mice (ELISA, ELISpot); format: in vivo; conditions: hu-BLT mice
# Description: (§1) Humanized BLT mice (hu-BLT; human-bone marrow/liver/thymus) were fed with, AJ2 (5×10^9 CFU/mice, every 2 days, Oral administration), WIN 55,212-2 (2 mg/kg, every 2 days, IP) and/or IL-15 (5 μg/mice, every 2 days, IP). After 3 weeks of treatment, immune cells were collected from peripheral blood, bone marrow and spleen, and CD3+ T cells were isolated from splenocytes with EasySep™ Human CD3 positive selection kit II (StemCell Tech.). PBMCs (0.5×10^6 cells) obtained from the peripheral blood were treated with IL-2 (1000 U/ml) and/or anti-CD16 antibody (BioLegend) (3 μg/ml) for 3 days, after which the cells were counted and different numbers of E:T ratios were used for the assessment of cytotoxicity using 4-hr Chromium release assay (FIG. 1A and FIG. 1B). The percentage specific cytotoxicity was calculated using the following formula (% cytotoxicity=(Experimental cpm/spontaneous cpm)/(total cpm−spontaneous cpm)) and the lytic unit 30 (Lu30/10^6) was calculated by using the inverse of the number of effector cells needed to lyse 30% of tumor target cells×100. Killing per % NK cells was determined by dividing the total Lytic unit 30 by the percentage of NK cells in each sample (FIG. 1A and FIG. 1B). PBMCs (0.5×10^6 cells) obtained from the blood were treated with IL-2 (1000 U/ml) and/or anti-CD16 antibody (BioLegend) (3 μg/ml) for 24 hours, after which the supernatants were collected to measure IFN-g secretion using ELISA (BioLegend, San Diego) (FIG. 1C). ELISpot was used to determine the IFN-γ spots in PBMC (FIG. 1D), bone marrow (FIG. 1E), spleen (FIG. 1F) and CD3+ T cells (FIG. 1G).
# Humanized BLT mice (hu-BLT; human-bone marrow/liver/thymus) were fed with, AJ2 (5×10^9 CFU/mice, every 2 days, Oral administration), WIN 55,212-2 (2 mg/kg, every 2 days, IP) and/or IL-15 (5 μg/mice, every 2 days, IP). After 3 weeks of treatment, immune cells were collected from peripheral blood, bone marrow and spleen, and CD3+ T cells were isolated from splenocytes with EasySep™ Human CD3 positive selection kit II (StemCell Tech.). PBMCs (0.5×10^6 cells) obtained from the peripheral blood were treated with IL-2 (1000 U/ml) and/or anti-CD16 antibody (BioLegend) (3 μg/ml) for 3 days, after which the cells were counted and different numbers of E:T ratios were used for the assessment of cytotoxicity using 4-hr Chromium release assay (FIG. 6A and FIG. 6B). The percentage specific cytotoxicity was calculated using the following formula (% cytotoxicity=(Experimental cpm/spontaneous cpm)/(total cpm−spontaneous cpm)) and the lytic unit 30 (Lu30/10^6) was calculated by using the inverse of the number of effector cells needed to lyse 30% of tumor target cells×100. Killing per % NK cells was determined by dividing the total Lytic unit 30 by the percentage of NK cells in each sample (FIG. 6A and FIG. 6B). PBMCs (0.5×10^6 cells) obtained from the blood were treated with IL-2 (1000 U/ml) and/or anti-CD16 antibody (BioLegend) (3 μg/ml) for 24 hours, after which the supernatants were collected to measure IFN-g secretion using ELISA (BioLegend, San Diego) (FIG. 6C). ELISpot was used to determine the IFN-γ spots in PBMC (FIG. 6D), bone marrow (FIG. 6E), spleen (FIG. 6F) and CD3+ T cells (FIG. 6G).
# NK cells = assay: NK cell cytotoxicity in humanized BLT mice (4-hr Chromium release assay); format: in vivo; conditions: hu-BLT mice, every 2 days for 3 weeks; WIN 55,212-2 2 mg/kg IP; IL-15 5 μg/mice IP; preliminary experiments
# Description: as §1, with “PBMCs (0.5×10^6 cells) obtained from the blood were treated with IL-2 (1000 U/ml) and/or anti-CD16 antibody (BioLegend) (3 μg/ml) for 24 hours, after which the supernatants were collected to measure IFN-g secretion using ELISA (BioLegend, San Diego) (FIG. 1C). ELISpot was used to determine the IFN-γ spots in PBMC (FIG. 1D), bone marrow (FIG. 1E), spleen (FIG. 1F) and CD3+ T cells (FIG. 1G).” left out
# PL-12 tumor cells = assay: Microscopy of morphology and viability; format: cell-based, human; conditions: different concentrations of WIN 55,212-2, 24 hours
# Description: (§2) MP2 and PL-12 tumor cells were treated with CDDP (50 μg/mL) and different concentrations of WIN 55,212-2 for 24 hours before the microscopic images were taken. Scale bar=50 μm.
# MP2 tumor cells = assay: Microscopy of morphology and viability; format: cell-based, human; conditions: different concentrations of WIN 55,212-2, 24 hours
# Description: as §2
# [1] = WIN 55,212-2 2 mg/kg IP every 2 days, 3 weeks
# [2] = vs untreated controls, 24 hours, up to 50 μM
compound,measurement,setting,value
"CS(=O)(=O)O.Cc1c(C(=O)c2cccc3ccccc23)c2cccc3c2n1[C@H](CN1CCOCC1)CO3 [WIN 55,212-2, (R)-(+)-[2,3-Dihydro-5-methyl-3-(4-morpholinylmethyl)pyrrolo[1,2,3-de]-1,4-benzoxazin-6-yl]-1-naphthalenylmethanone mesylate]",IFN-γ immune-spots (ELISpot) in PBMCs,IFN-γ secretion; [1],augmented
same,IFN-γ immune-spots (ELISpot) in bone marrow,IFN-γ secretion; [1],augmented
same,IFN-γ immune-spots (ELISpot) in purified CD3+ T cells,IFN-γ secretion; [1],augmented
same,IFN-γ immune-spots (ELISpot) in spleen,IFN-γ secretion; [1],augmented
same,"IFN-γ secretion (ELISA, PBMCs)","IFN-γ secretion; every 2 days for 3 weeks, WIN 55,212-2 2 mg/kg IP, IL-15 5 μg/mice IP",augmented IFN-γ secretion
same,cytotoxic function of NK cells in PBMC,NK cells,increased the cytotoxic function of NK cells
same,"decrease in cell surface MHC class I expression, OSCCs compared with OSCSCs","OSCCs; after WIN 55,212-2 treatment",Significantly greater decrease
same,cell surface expression of CD44,OSCCs; [2],Decreased expression
same,cell surface expression of CD54,OSCCs; [2],Decreased expression
same,cell surface expression of MHC class I,OSCCs; [2],Decreased expression
same,cell surface expression of PD-L1,OSCCs; [2],Decreased expression
same,morphology and viability,PL-12 tumor cells,maintained their morphology and remained viable
same,morphology and viability,MP2 tumor cells,largely lost their shape and morphology
